From patent US12497364B2, “Compound for the determination of the protein FKBP12 and a sensor unit comprising it” (UNIVERSITA DEGLI STUDI DI FIRENZE, priority 2019, dated 2025) come the findings set out here.

Assay [1] concerns the target T1, FKBP12 (Homo sapiens, UniProt P62942).
T1 construct: purchased Interuniversity Magnetic Resonance Consortium of Paramagnetic Metalloproteins, CIRMMP (Florence, Italy); host or cells: Escherichia coli
Nature of the assay: QCM microgravimetric measurement of FKBP12 bound to the self-assembled monolayer (SAM), Langmuir fit. It counts as binding. To be noted: for Binding of FKBP12 in solution to the SAM (FIG. 5): mass of FKBP12 bound versus FKBP12 concentration in solution. On the procedure: FKBP12 expressed in Escherichia coli, molecular weight 11900, purity >95% was supplied by the Interuniversity Magnetic Resonance Consortium of Paramagnetic Metalloproteins, CIRMMP (Florence, Italy). The purity of FKBP12 was determined by SDS electrophoresis. K2HPO4 and KH2PO4 for the preparation of the phosphate buffer was obtained from Sigma-Aldrich (Italy). All measurements were made using ultrapure water (resistivity=18 MΩ cm, pH=5.6 at 20° C.) obtained with a Milli-RO equipment coupled with a Milli-Q set up (Millipore, Italy).
(§1) The concentration of the stock solutions of FKBP12 in PBS buffer (pH 7.4, 0.15 M NaCl) was checked by UV/Vis measurements using ε280=9970 M^−1 cm^−1. The stock solution of FKBP12 was diluted to reach the concentrations used for the calibration straight line.
(§2) The microgravimetric analyses were carried out with a Quartz-Crystal microbalance (QCM-Z 500 from KSV-Finland). This instrumentation is equipped with a Peltier element for controlling the temperature inside the measurement chamber. All experiments were performed at a temperature of T=20.0±0.1° C.
The frequency and dissipation data for all recorded harmonics were processed with the QCMBrowse software which directly provides adsorbed mass in nanograms/cm^2, thickness of the monolayer in nanometers and viscoelastic parameters of the system.
The gold-coated piezoelectric quartz support covered with the SAMs as described above in Example 2, was brought into contact with solutions of increasing concentration of the FKBP12 protein and the concentration of the protein bound to the self-assembled monolayer SAM at saturation was recorded with gravimetric measurements.
Two different miniaturized versions of an open chamber QCM quartz crystal microbalance (from QCM KSV, Finland and an OpenQCM, Italy modified by the inventors) were also used as a device, allowing the use of small measurement volumes (less than 100 microliters) of the solution to analyse.
Again with reference to FIG. 5, it can be observed that in all the examined cases there is a saturation trend of the curves, which flatten once the sites available for binding the FKBP protein are exhausted. Considering the structure reached at this concentration as the final equilibrium structure, the relative structural parameters reported in the following Table 2 were calculated.
The trend shown in FIG. 5 can be rationalized through the Langmuir binding and/or adsorption equation: Δm/A=(Δm/A)sat[C]/[C]+kd
The application of this model to the data obtained from the microgravimetric measurements allowed to obtain a detailed picture of the interaction mechanism and the energetics involved, in particular we obtained the maximum surface density of FKBP12 (to saturation), the dissociation constant Kd for FKBP12/receptor in the nanosensor and free energy of physi-sorption. The values obtained are shown in Table 3 below, for all the types of SAMs examined.

Assay [2] deals with T1, FKBP12. The assay can be described thus: Calibration straight line for FKBP12 on the SAM nanosensor (QCM). On the procedure:
as §1, §2
From the analysis of the calibration straight lines obtained for the systems examined, the linearity intervals and the experimental limit of detection (LOD) were obtained (wherein LOD means the smallest amount of measurable analyte with acceptable accuracy and precision) for each sensor tested, considering that the maximum sensitivity to the mass in the cell for liquids of the instrumentation used is 0.5 ng/cm^2. This limit may vary depending on the analytical instrumentation adopted for the same SAM used.

For assay [3], the target named is T1, FKBP12. Nature of the assay: Duration of operation of the SAM and its reconditioning (QCM). To be noted: reconditioning with imidazole or with ethanol. On the procedure:
The microgravimetric measurements described above were repeated on freshly prepared SAMs or aged up to 4 months, finding the same results, at least for SAMs stored in closed containers saturated with N2.
Measurements were also carried out on SAMs already used for a measurement, after reconditioning with imidazole or with ethanol. […] The same result was achieved by leaving in incubation the SAM in solution of the reconditioning solvent.

T1 sequence (P62942 whole entry): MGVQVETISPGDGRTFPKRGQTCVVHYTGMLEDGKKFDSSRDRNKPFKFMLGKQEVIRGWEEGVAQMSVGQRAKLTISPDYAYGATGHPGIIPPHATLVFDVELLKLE

With `CCCCCCCCCCCCS` [C12SH, reference compound], on FKBP12 [1], the “Binding of FKBP12 in solution to the SAM (FIG. 5)” value is given as “no interaction with the FKBP protein in solution is observed”.

Regarding `O=C(CCCCCCCCCCS)Oc1ccc(C(=O)C(=O)N2CCCC[C@H]2C(=O)NCCCc2ccccc2)cc1` [GPS-SH1, (S)-4-(2-oxo-2-(2-((3-phenylpropyl)carbamoyl)piperidin-1-yl)acetyl)phenyl 11-mercaptoundecanoate], the “Linear interval of the response to FKBP12” value at FKBP12 [2] (FKBP12 concentration in solution, QCM mass sensitivity 0.5 ng/cm^2) lay within 10 to 800 pM. Also, the “Limit of Detection (LOD)” value at FKBP12 [2] (LOD = 3x (y-intercept standard deviation)/slope of the calibration curve) was 8.0 pM. Also, the “(M/Area)max (Langmuir FIT), maximum surface density of FKBP12 at saturation” value at FKBP12 [1] (Table 2, SAM on gold-coated quartz crystal) is 123 ng/cm^2. The compound also displayed a Kd at FKBP12 [1] (Table 2, SAM on gold-coated quartz crystal, T=20.0 °C, pseudo-Kd for mixed systems) of 0.75 nM. In addition, the “(Maa/Area)max (Langmuir FIT)” value on FKBP12 [1] (Table 3) is 123 ng/cm^2. For the same compound, at FKBP12 [1] (Table 3, experimental data, at saturation), the “Area available for FKBP12 to saturation” value is given as 1910 Å^2. Also, the “Binding of FKBP12 in solution to the SAM (FIG. 5)” value on FKBP12 [1] was “binds”. Moreover, at FKBP12 [3], the “QCM frequency before addition of FKBP12 versus after rinsing with the reconditioning solvent” value was “identical”.
